From ChEMBL document CHEMBL3044913, “Synthesis, in vitro cytotoxicity, and antibacterial studies of new asymmetric bis-1,2,4-triazoles” (Med Chem Res, 2013) come the findings set out here.

Converted amounts (≈) assume the structure as drawn. A value given as a limit tells only on which side of the number the result lay.

Experiment [1] relates to Pseudomonas aeruginosa. The experiment can be described thus: Antibacterial activity against Pseudomonas aeruginosa ATCC 27853 assessed as growth inhibition after 24 hr by two-fold serial dilution method. The settings on record: ATCC 27853, 24 h. The class given is functional.
Experiment [2] has as its system Escherichia coli. The experiment in a line: Antibacterial activity against Escherichia coli ATCC 25922 assessed as growth inhibition after 24 hr by two-fold serial dilution method. The class given is functional. Conditions: ATCC 25922, 24 h.
The subject of experiment [3] is Bacillus subtilis. The experiment in a line: Antibacterial activity against Bacillus subtilis ATCC 6633 assessed as growth inhibition after 24 hr by two-fold serial dilution method. In kind it is functional. The settings on record: ATCC 6633, 24 h.
The subject of experiment [4] is Staphylococcus aureus. The experiment can be described thus: Antibacterial activity against Staphylococcus aureus ATCC 25923 assessed as growth inhibition after 24 hr by two-fold serial dilution method. The class given is functional. The settings on record: ATCC 25923, 24 h.
Experiment [5] concerns Pseudomonas aeruginosa. The experiment in a line: Antibacterial activity against Pseudomonas aeruginosa ATCC 27853 assessed as diameter of growth inhibition zone at 100 ug/ml after 24 hr by cup-plate method. The class given is functional. The settings on record: ATCC 27853, 24 h, read-out: DIZ.
The test system of experiment [6] is Escherichia coli. The experiment in a line: Antibacterial activity against Escherichia coli ATCC 25922 assessed as diameter of growth inhibition zone at 100 ug/ml after 24 hr by cup-plate method. The class given is functional. The settings on record: ATCC 25922, 24 h, read-out: DIZ.
In experiment [7] the test system is Bacillus subtilis. The experiment in a line: Antibacterial activity against Bacillus subtilis ATCC 6633 assessed as diameter of growth inhibition zone at 100 ug/ml after 24 hr by cup plate method. In kind it is functional. The settings on record: ATCC 6633, 24 h, read-out: DIZ.
Experiment [8] concerns Staphylococcus aureus. The experiment can be described thus: Antibacterial activity against Staphylococcus aureus ATCC 25923 assessed as diameter of growth inhibition zone at 100 ug/ml after 24 hr by cup-plate method. The class given is functional. The settings on record: ATCC 25923, 24 h, read-out: DIZ.
Experiment [9] is described as follows: Cytotoxicity against Homo sapiens (human) MDA231 cells assessed as inhibition of cell growth after 48 hr by MTT assay. In kind it is functional, cell-based. Conditions: MDA-MB-231, 48 h.
In experiment [10] the test system is HT-29. The experiment in a line: Cytotoxicity against Homo sapiens (human) HT-29 cells assessed as inhibition of cell growth after 48 hr by MTT assay. In kind it is functional, cell-based. The settings on record: HT-29, 48 h. Background: Tetrazolium assays rely on reduction of a dye to a coloured formazan, in cell work by metabolically active cells.
The subject of experiment [11] is Radical scavenging activity. The experiment in a line: Antioxidant activity assessed as DPPH radical scavenging activity at 40 ug/ml after 30 min. In kind it is functional. (In general: The DPPH test is a chemical assay of radical scavenging.)

The MIC is the lowest concentration found to suppress growth. The term IC50 denotes the point on the concentration scale where inhibition reaches its midpoint. `COc1ccc(-n2c(S)nnc2CSc2nnc(-c3ccccc3)n2-c2ccccc2)cc1`: the MIC is 100 mg/L (≈ 212 µM) in experiment [1], 50 mg/L (≈ 106 µM) in experiment [2], 50 mg/L (≈ 106 µM) in experiment [3] and 25 mg/L (≈ 52.9 µM) in experiment [4]. The zone of inhibition at 100 µg/mL in experiment [5], in experiment [6], in experiment [7] and in [8] was 21 mm each time. The concentration for half-maximal inhibition (IC50) is 29.2 µM in experiment [9] and 27.7 µM in [10]. For the same compound, the Activity in experiment [11] came to 63%.
Turning to `Sc1nnc(Sc2nnc(-c3ccccc3)n2-c2ccccc2)n1-c1ccccc1`, the minimum inhibitory concentration (MIC) in experiment [1], in experiment [2], in experiment [3] and in experiment [4] was 100 mg/L (≈ 233 µM) in each case. Besides, the zone of inhibition at 100 µg/mL in experiment [5], in experiment [6], in experiment [7] and in [8] was 5 mm throughout. Moreover, the IC50 in experiment [9] worked out at 34.6 µM; in [10], 28.3 µM. In addition, the Activity in [11] is 63%.
In the case of `CCOc1ccc(-n2c(S)nnc2Sc2nnc(-c3ccccc3)n2-c2ccccc2)cc1`, the minimum inhibitory concentration (MIC) in experiment [1], in [2], in [3] and in experiment [4] was 100 mg/L (≈ 212 µM) each time. Also, the zone of inhibition at 100 µg/mL in experiment [5], in experiment [6], in [7] and in [8] was 5 mm throughout. For the same compound, the IC50 in experiment [9] is 43.9 µM; in [10], 46.8 µM. Also, the Activity in experiment [11] stood at 59%.
As to `O=C1O[C@H]([C@@H](O)CO)C(O)=C1O`, the Activity in experiment [11] worked out at 94%.
As to `CC1(C)S[C@@H]2[C@H](NC(=O)[C@H](N)c3ccccc3)C(=O)N2[C@H]1C(=O)O` [AMPICILLIN], the MIC in [1], in experiment [2], in experiment [3] and in experiment [4] was less than 6.25 mg/L in each case. The zone of inhibition at 100 µg/mL in [5], in experiment [6], in [7] and in experiment [8] was 28 mm each time.
As to `CC(C)n1c(S)nnc1CSc1nnc(-c2ccccc2)n1-c1ccccc1`, the MIC in experiment [1], in experiment [2], in experiment [3] and in experiment [4] was 100 mg/L (≈ 245 µM) throughout. Also, the zone of inhibition at 100 µg/mL in experiment [5], in [6], in experiment [7] and in experiment [8] was 5 mm throughout. In experiment [11], the Activity came to 42%.
`CC(C)n1c(S)nnc1Sc1nnc(-c2ccccc2)n1-c1ccccc1`: the MIC in experiment [1], in experiment [2], in experiment [3] and in experiment [4] was 100 mg/L (≈ 253 µM) in each case. Also, the zone of inhibition at 100 µg/mL in experiment [5], in [6], in [7] and in experiment [8] was 5 mm in each case. The Activity in experiment [11] was found to be 39%.
Regarding `Fc1ccc(-n2c(S)nnc2CSc2nnc(-c3ccccc3)n2-c2ccccc2)cc1`, the MIC in [1] stood at 12.5 mg/L (≈ 27.1 µM); in experiment [2] it was 25 mg/L (≈ 54.3 µM); in [3] it was 12.5 mg/L (≈ 27.1 µM); in experiment [4], 25 mg/L (≈ 54.3 µM). The zone of inhibition at 100 µg/mL in experiment [5], in experiment [6], in [7] and in experiment [8] was 21 mm throughout. Moreover, the half-inhibitory concentration (IC50) in experiment [9] worked out at 26.8 µM; in [10], 16.7 µM. Also, the Activity in experiment [11] turned out to be 72%.
Consider `Sc1nnc(CSc2nnc(-c3ccccc3)n2-c2ccccc2)n1-c1ccc(Cl)cc1`, for which the minimal inhibitory concentration (MIC) was 100 mg/L (≈ 210 µM) in [1], 50 mg/L (≈ 105 µM) in experiment [2], 25 mg/L (≈ 52.4 µM) in experiment [3] and 50 mg/L (≈ 105 µM) in experiment [4]. Also, the zone of inhibition at 100 µg/mL in experiment [5], in experiment [6], in [7] and in experiment [8] was 16 mm each time. In addition, the IC50 turned out to be 50.3 µM in [9] and 36.6 µM in experiment [10]. Further, in [11], the Activity was 65%.
Consider `CCOc1ccc(-n2c(S)nnc2CSc2nnc(-c3ccccc3)n2-c2ccccc2)cc1`, for which the minimal inhibitory concentration (MIC) in experiment [1], in experiment [2], in experiment [3] and in [4] was 100 mg/L (≈ 205 µM) each time. Besides, the zone of inhibition at 100 µg/mL in [5], in [6], in experiment [7] and in experiment [8] was 5 mm throughout. In experiment [11], the Activity came out at 34%.
With `COc1ccc(-n2c(S)nnc2Sc2nnc(-c3ccccc3)n2-c2ccccc2)cc1`, the MIC in experiment [1], in experiment [2], in [3] and in experiment [4] was 100 mg/L (≈ 218 µM) each time. Also, the zone of inhibition at 100 µg/mL in experiment [5], in experiment [6], in [7] and in experiment [8] was 5 mm each time. Besides, the Activity in experiment [11] worked out at 28%.
Take `Sc1nnc(CSc2nnc(-c3ccccc3)n2-c2ccccc2)n1-c1ccccc1`: the MIC in experiment [1] is 50 mg/L (≈ 113 µM); in experiment [2] it was 25 mg/L (≈ 56.5 µM); in [3] it was 12.5 mg/L (≈ 28.2 µM); in [4], 12.5 mg/L (≈ 28.2 µM). Further, the zone of inhibition at 100 µg/mL in [5], in [6], in experiment [7] and in experiment [8] was 16 mm in each case. For the same compound, the concentration for half-maximal inhibition (IC50) in experiment [9] was determined as 8.57 µM; in experiment [10] it was 5.49 µM. For the same compound, the Activity in experiment [11] worked out at 85%.
For `O=c1[nH]cc(F)c(=O)[nH]1` [FLUOROURACIL], the half-maximal inhibitory concentration (IC50) turned out to be 2.72 µM in [9] and 3.24 µM in experiment [10].
Take `Fc1ccc(-n2c(S)nnc2Sc2nnc(-c3ccccc3)n2-c2ccccc2)cc1`: the MIC was found to be 50 mg/L (≈ 112 µM) in experiment [1], 50 mg/L (≈ 112 µM) in experiment [2], 25 mg/L (≈ 56 µM) in experiment [3] and 25 mg/L (≈ 56 µM) in experiment [4]. Besides, the zone of inhibition at 100 µg/mL in [5], in experiment [6], in experiment [7] and in experiment [8] was 16 mm throughout. For the same compound, the IC50 in [9] came out at 29.7 µM; in [10] it was 32.8 µM. Besides, in experiment [11], the Activity was 60%.
In the case of `Sc1nnc(Sc2nnc(-c3ccccc3)n2-c2ccccc2)n1-c1ccc(Cl)cc1`, the MIC is 25 mg/L (≈ 54 µM) in experiment [1], 12.5 mg/L (≈ 27 µM) in experiment [2], 25 mg/L (≈ 54 µM) in experiment [3] and 12.5 mg/L (≈ 27 µM) in experiment [4]. Further, the zone of inhibition at 100 µg/mL in [5], in [6], in experiment [7] and in [8] was 16 mm each time. Besides, the half-inhibitory concentration (IC50) in experiment [9] worked out at 49.7 µM; in [10] it was 38.4 µM. In addition, the Activity in [11] amounted to 64%.
